This note sets out measurements from ChEMBL document CHEMBL1212922, “Crystal structure-based selective targeting of the pyridoxal 5'-phosphate dependent enzyme kynurenine aminotransferase II for cognitive enhancement” (J Med Chem, 2010).

For assay [1], the target named is T1, Kynurenine/alpha-aminoadipate aminotransferase, mitochondrial (Homo sapiens, UniProt Q8N5Z0). Put plainly: Inhibition of human recombinant MBP-KAT2 expressed in HEK293 cells assessed as conversion of L-kynurenine to kynurenic acid after 1 hr.
T1 sequence (Q8N5Z0 whole entry): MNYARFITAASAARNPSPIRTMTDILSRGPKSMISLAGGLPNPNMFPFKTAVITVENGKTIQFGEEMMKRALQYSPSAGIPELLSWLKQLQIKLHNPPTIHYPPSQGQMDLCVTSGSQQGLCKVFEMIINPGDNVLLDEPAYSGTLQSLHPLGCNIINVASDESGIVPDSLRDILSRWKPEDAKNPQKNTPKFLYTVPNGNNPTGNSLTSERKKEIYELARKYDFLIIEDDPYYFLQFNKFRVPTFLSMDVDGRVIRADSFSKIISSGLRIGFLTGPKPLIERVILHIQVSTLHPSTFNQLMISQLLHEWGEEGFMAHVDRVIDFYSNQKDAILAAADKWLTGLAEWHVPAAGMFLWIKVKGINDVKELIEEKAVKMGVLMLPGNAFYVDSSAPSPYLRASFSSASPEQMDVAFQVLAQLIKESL
Assay [2] has as its target Kynurenine/alpha-aminoadipate aminotransferase, mitochondrial (Rattus norvegicus, UniProt Q64602). Put plainly: Inhibition of rat brain KAT2.
Assay [3] has as its target T1, Kynurenine/alpha-aminoadipate aminotransferase, mitochondrial. Put plainly: Inhibition of KAT2 in human prefrontal cortex homogenates. In kind it is tissue-based.
The target in assay [4] is T2, Kynurenine--oxoglutarate transaminase 1 (Homo sapiens, UniProt Q16773).
T2 sequence (Q16773 whole entry): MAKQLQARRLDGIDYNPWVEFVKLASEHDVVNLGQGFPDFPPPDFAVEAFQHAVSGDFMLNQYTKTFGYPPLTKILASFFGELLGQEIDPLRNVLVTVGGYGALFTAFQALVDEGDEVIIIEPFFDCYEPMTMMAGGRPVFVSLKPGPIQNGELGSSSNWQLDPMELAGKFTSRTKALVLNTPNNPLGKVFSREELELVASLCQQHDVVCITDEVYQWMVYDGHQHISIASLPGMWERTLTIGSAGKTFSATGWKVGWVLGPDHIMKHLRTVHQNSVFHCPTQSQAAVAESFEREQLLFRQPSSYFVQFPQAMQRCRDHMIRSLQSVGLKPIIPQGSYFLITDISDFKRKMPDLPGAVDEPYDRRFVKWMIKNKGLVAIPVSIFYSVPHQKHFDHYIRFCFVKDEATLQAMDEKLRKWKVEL
As to the kind of experiment: Inhibition of KAT1 in human prefrontal cortex homogenates. The format is tissue-based.

Assay [5] deals with Kynurenine 3-monooxygenase (Homo sapiens) (UniProt O15229). Put plainly: Inhibition of kynurenine 3-monooxygenase in human prefrontal cortex homogenates at 100 uM. In kind it is tissue-based.
Chain of Kynurenine 3-monooxygenase (Homo sapiens) (O15229 whole entry, looked up): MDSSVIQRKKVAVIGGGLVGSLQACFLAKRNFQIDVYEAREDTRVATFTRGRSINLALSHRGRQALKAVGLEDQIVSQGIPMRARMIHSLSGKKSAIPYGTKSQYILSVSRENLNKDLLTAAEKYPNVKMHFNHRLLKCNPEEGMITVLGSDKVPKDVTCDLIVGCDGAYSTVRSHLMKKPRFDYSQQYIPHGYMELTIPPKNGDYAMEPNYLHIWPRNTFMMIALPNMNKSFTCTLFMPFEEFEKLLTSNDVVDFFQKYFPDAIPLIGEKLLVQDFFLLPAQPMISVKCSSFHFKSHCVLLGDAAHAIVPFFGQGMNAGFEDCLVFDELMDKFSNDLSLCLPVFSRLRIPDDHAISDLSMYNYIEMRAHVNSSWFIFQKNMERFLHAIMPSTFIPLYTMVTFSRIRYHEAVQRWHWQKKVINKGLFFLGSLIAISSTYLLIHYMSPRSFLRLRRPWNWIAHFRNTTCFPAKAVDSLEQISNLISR
Assay [6] has as its target T3, Kynureninase (Homo sapiens) (UniProt Q16719).
T3 sequence (whole entry): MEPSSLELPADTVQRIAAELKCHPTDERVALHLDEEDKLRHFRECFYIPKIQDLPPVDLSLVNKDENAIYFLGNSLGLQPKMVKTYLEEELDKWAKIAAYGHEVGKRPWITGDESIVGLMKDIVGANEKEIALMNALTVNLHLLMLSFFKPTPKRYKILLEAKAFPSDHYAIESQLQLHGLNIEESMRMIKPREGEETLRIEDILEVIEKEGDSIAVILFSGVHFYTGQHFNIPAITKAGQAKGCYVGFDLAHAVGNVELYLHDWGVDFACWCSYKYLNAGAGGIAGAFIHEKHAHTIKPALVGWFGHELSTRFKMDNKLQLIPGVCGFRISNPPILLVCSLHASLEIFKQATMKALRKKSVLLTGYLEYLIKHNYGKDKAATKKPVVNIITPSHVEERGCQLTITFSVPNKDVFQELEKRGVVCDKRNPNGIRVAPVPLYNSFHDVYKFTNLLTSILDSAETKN
As to the kind of experiment: Inhibition of kynureninase in human prefrontal cortex homogenates at 100 uM. The format is tissue-based.

Assay [7] addresses T2, Kynurenine--oxoglutarate transaminase 1. Put plainly: Inhibition of human recombinant MBP-KAT1 expressed in Escherichia coli BL21 assessed as conversion of L-kynurenine to kynurenic acid after 1 hr.

Structures are written as SMILES. pIC50: −log10 of the molar value. A value given as a limit tells only on which side of the number the result lay.

Chain of Kynurenine/alpha-aminoadipate aminotransferase, mitochondrial (Rattus norvegicus, UniProt Q64602) (Q64602 whole entry): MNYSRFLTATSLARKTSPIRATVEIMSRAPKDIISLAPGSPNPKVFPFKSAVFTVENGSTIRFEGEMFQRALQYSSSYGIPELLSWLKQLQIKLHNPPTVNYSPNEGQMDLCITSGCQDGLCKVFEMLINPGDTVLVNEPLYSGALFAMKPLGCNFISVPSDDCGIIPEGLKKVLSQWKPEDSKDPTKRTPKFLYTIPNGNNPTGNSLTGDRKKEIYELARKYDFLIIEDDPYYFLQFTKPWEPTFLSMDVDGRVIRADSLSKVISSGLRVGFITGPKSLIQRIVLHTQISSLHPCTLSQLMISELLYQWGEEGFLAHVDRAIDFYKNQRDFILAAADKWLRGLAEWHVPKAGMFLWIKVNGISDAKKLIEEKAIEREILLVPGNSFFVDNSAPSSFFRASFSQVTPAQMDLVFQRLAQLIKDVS

As to `C[C@H]1COc2c(N3CCN(N)CC3)c(F)cc3c(=O)c(C(=O)O)cn1c23`, the pIC50 – broadly, −log10 of the IC50, conventionally taken in molar units – in assay [1] was 6.04; in assay [2], 6.00; in assay [3] it was 6.00; in assay [4], < 4.52; in assay [7], < 4.52. Besides, the inhibition (in general, the share of the control response that was lost under treatment) came to 8.3% in assay [5] and 5.1% in assay [6].

Take `C[C@@H]1COc2c(N3CCN(N)CC3)c(F)cc3c(=O)c(C(=O)O)cn1c23`: in assay [1], the negative logarithm of the IC50 (pIC50) is 5.82.
